This passage reports Ki and melting point results from US6765003B1, “3-Arylsulfonyl-2 (substituted methyl) propanoic acid derivatives as matrix metalloproteinase inhibitors” (Pharmacia Italia, SpA, priority 1999, dated 2004).

In data set [1] the target is T1, Human gelatinase-A (MMP-2) (Homo sapiens, UniProt P08253).
T1 sequence (P08253 110-660): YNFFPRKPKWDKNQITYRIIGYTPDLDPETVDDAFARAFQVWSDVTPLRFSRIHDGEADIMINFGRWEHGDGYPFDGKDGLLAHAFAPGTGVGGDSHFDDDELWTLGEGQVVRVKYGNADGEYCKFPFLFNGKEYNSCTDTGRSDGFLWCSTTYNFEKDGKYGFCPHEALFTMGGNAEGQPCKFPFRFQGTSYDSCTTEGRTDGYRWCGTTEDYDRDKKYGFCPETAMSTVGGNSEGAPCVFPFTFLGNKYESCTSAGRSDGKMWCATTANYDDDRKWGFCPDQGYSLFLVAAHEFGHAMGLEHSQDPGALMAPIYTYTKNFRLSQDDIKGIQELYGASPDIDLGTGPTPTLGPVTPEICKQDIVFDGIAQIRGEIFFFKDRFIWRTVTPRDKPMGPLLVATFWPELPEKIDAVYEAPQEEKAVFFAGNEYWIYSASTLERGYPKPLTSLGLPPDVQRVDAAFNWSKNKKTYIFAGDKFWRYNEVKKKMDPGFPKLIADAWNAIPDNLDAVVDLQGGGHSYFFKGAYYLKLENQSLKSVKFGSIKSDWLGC
The data set is described as follows: MMP inhibition, internal fluorescence quenching method (MCA peptide substrate). Type of data set: biochemical. On the procedure: (§1) The inhibitory activity of the compounds of the present invention was evaluated in vitro against one or more of the MMP enzymes (gelatinases, collagenases, stromelysins) using the internal fluorescence quenching method. The assay method is based on the hydrolysis of the MMP substrate, MCA-Pro-Leu-Gly-Leu-DPA-Ala—Arg-NH2 at 37° C. (see Knight, C. G. et al., FEBS Lett. 296:263-266, 1992). The enzymes cleave at the Gly-Leu bond removing the internally quenching DPA group. The release of the highly fluorescent peptide MCA-Pro-Leu was monitored with a LS50 Perkin Elmer fluorimeter equipped with a Peltier-thermostated cell holder using an excitation wavelength of 326 nm and an emission wavelenght of 398 nm. Slis were set at 14/14. Proper determination of steady-state rates of substrate cleavage required a preincubation at 37° C. of 15 minutes to allow for complete equilibration of the enzyme-inhibitor complex. […] Rates of substrate hydrolysis, expressed as fluorescence arbitrary units per minute, were calculated by least-square analysis of the steady-state linear progression curves. The steady-state rates were fitted to the Michaelis equation describing competitive inhibition; in particular, Ki,app were determined by fining the data to the tight-binding equation of Morrison (Biochem. Biophys. Acta, 185:269-286, 1969) by non-linear methods.
(§2) Human gelatinase-A (MMP-2) was obtained as penzyme (72 kDa) and was activated with 1 mM 4-aminophenylmercuric acetate for 30 min at 37° C. immediately prior to use. The inhibitor was diluted into the assay from a stock solution in 100% DMSO, and controls substituted an equal volume of DMSO so that the final DMSO concentration from inhibitor and substrate dilution in all assays was 1%. The concentration of MMP-2 was 19.2 picoM. For compounds of formula (I) where X is —OH, the assay buffer was 50 mM Tris/HCl pH 6.5 containing 150 mM NaCl, 10 mM CaCl2, 0.01 mM ZnCl2 and 0.05% Brij35 (Protocol A). Other conditions were as stated above.
The compounds of formula (I) where X is —NHOH were tested against MMP-2 and MMP-1 under the conditions stated above, but the assay solution was buffered at pH 7.4 (Protocol B).

Data set [2] addresses T2, Human fibroblast collagenase (MMP-1) (Homo sapiens, UniProt P03956).
T2 sequence (P03956 101-269): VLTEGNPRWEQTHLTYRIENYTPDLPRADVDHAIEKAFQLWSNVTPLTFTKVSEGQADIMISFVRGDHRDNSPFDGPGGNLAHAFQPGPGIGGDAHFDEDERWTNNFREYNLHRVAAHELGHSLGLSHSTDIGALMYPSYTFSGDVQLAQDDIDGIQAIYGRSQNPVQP
The data set is described as follows: MMP inhibition, internal fluorescence quenching method (MCA peptide substrate). The data set is classed as biochemical. The procedure:
as §1, §2
Assay conditions were the same as above, but enzyme concentration was 200 picoM.

Where [3] appears, read: Protocol A: Tris/HCl pH 6.5, 37° C., MMP-2 19.2 picoM, substrate 3 μM, carboxylic acids, read-out: MMP-2 Ki.
Setting [4] is: Protocol B: pH 7.4, 37° C., hydroxamic acids (X is —NHOH), read-out: MMP-2 Ki (picoM).
[5] abbreviates: Protocol B: pH 7.4, 37° C., hydroxamic acids (X is —NHOH), read-out: MMP-1 Ki (picoM).
Where [6] appears, read: Protocol A: pH 6.5, 37° C., enzyme 200 picoM, substrate 3 μM, carboxylic acids, read-out: MMP-1 Ki.

Counter-ions that a name gives are not always drawn. Like-named read-outs stand apart in the source and are kept apart here.

`O=C(O)C(CSc1ccccc1)CS(=O)(=O)c1ccc(-c2ccc(Cl)cc2)cc1` (racemic) [Example 1, 3-[(4′-chloro[1,1′-biphenyl]-4-yl)sulfonyl]-2-[(phenylsulfanyl)methyl]propanoic acid] gave a melting point of 158 to 162 °C. Further, in data set [1] (setting [3]), the Ki turned out to be 8.3 nM.

Regarding `CN1C(=O)N(CC(CS(=O)(=O)c2ccc(-c3ccccc3)cc2)C(=O)O)C(=O)C1(C)C` (stereo not shown) [Example 7], the melting point was > 200 °C (dec.). Also, the inhibition constant Ki in data set [1] (setting [3]) came to 42 nM.

As for `CN1C(=O)N(CC(CS(=O)(=O)c2ccc(-c3ccc(Cl)cc3)cc2)C(=O)NO)C(=O)C1(C)C` (stereo not shown) [Example 8, 3-[(4′-chloro[1,1′-biphenyl]-4-yl)sulfonyl]-N-hydroxy-2-[(3,4,4-trimethyl-2,5-dioxo-1-imidazolidinyl)methyl]propanamide], the inhibitory constant (Ki) stood at 0.107 nM in data set [1] (setting [4]) and 26.8 nM in data set [2] (setting [5]).

In turn, `CC1(C)NC(=O)N(CC(CS(=O)(=O)c2ccc(-c3ccc(Cl)cc3)cc2)C(=O)O)C1=O` (stereo not shown) [Example 9, 3-[(4′-chloro[1,1′-biphenyl]-4-yl)sulfonyl]-2-[(4,4-dimethyl-2,5-dioxo-1-imidazolidinyl)methyl]propanoic acid] yielded a melting point of 242 to 245 °C. Besides, in data set [1] (setting [3]), the Ki amounted to 3 nM.

As to `CC1(C)NC(=O)N(CC(CS(=O)(=O)c2ccc(-c3ccc(Cl)cc3)cc2)C(=O)NO)C1=O` (stereo not shown) [Example 10, 3-[(4′-chloro[1,1′-biphenyl]-4-yl)sulfonyl]-N-hydroxy-2-[(4,4-dimethyl-2,5-dioxo-1-imidazolidinyl)methyl]propanamide], the results for the inhibitory constant (Ki) in data set [1] (setting [4]) and in data set [2] (setting [5]) were 0.05 nM and 12.6 nM, respectively.

Regarding `O=C(O)C(CN1C(=O)CNC1=O)CS(=O)(=O)c1ccc(-c2ccc(Cl)cc2)cc1` (stereo not shown) [Example 11, 3-[(4′-chloro[1,1′-biphenyl]-4-yl)sulfonyl]-2-[(2,5-dioxo-1-imidazolidinyl)methyl]propanoic acid], the melting point fell in the range of 188 to 190 °C. In data set [1] (setting [3]), the Ki came out at 4 nM.

`O=C(NO)C(CN1C(=O)CNC1=O)CS(=O)(=O)c1ccc(-c2ccc(Cl)cc2)cc1` (stereo not shown) [Example 12, 3-[(4′-chloro[1,1′-biphenyl]-4-yl)sulfonyl]-N-hydroxy-2-[(2,5-dioxo-1-imidazolidinyl)methyl]propanamide] yielded a melting point of 150 to 156 °C. The Ki in data set [1] (setting [4]) came out at 0.069 nM. For the same compound, the Ki in data set [2] (setting [5]) was determined as 17.1 nM.

Consider `CCCCN1CC(=O)N(CC(CS(=O)(=O)c2ccc(-c3ccc(Cl)cc3)cc2)C(=O)O)C1=O` (stereo not shown) [Example 13], for which the Ki is 12 nM in data set [1] (setting [3]) and 5290 nM in data set [2] (setting [6]).

Take `O=C(Nc1ccc(S(=O)(=O)CC(CSc2ccccc2)C(=O)O)cc1)c1ccccc1` (stereo not shown) [Example 15, 3-[[4-(Benzoylamino)phenyl]sulfonyl]-2-[(phenylsulfanyl)methyl]propanoic acid]: the Ki in data set [1] (setting [3]) turned out to be 7 nM; in data set [2] (setting [6]), 81100 nM.

As to `O=C(O)C(CSc1ccc(O)cc1)CS(=O)(=O)c1ccc(-c2ccc(Cl)cc2)cc1` (stereo not shown) [Example 16, 3-[(4′-chloro[1,1′-biphenyl]-4-yl)sulfonyl]-2-[[(4-hydroxyphenyl)sulfanyl]methyl]propanoic acid], the Ki in data set [1] (setting [3]) was 9 nM; in data set [2] (setting [6]), 9700 nM.

In the case of `O=C(O)C(COc1ccccc1)CS(=O)(=O)c1ccc(-c2ccc(Cl)cc2)cc1` (stereo not shown) [Example 17, 3-[(4′-Chloro[1,1′-biphenyl]-4-yl)sulfonyl]-2-(phenoxymethyl)propanoic acid, sodium salt], the Ki turned out to be 9.2 nM in data set [1] (setting [3]) and 14700 nM in data set [2] (setting [6]).

Turning to `O=C(O)C(CSc1ccccn1)CS(=O)(=O)c1ccc(-c2ccc(Cl)cc2)cc1` (stereo not shown) [Example 20, 3-[(4′-chloro[1,1′-biphenyl]-4-yl)sulfonyl]-2-[(2-pyridinylsulfanyl)methyl]propanoic acid], the Ki in data set [1] (setting [3]) worked out at 3.9 nM; in data set [2] (setting [6]), 6290 nM.

Take `O=C(Nc1ccc(S(=O)(=O)CC(CSc2ccccc2)C(=O)O)cc1)c1ccc(Cl)cc1` (stereo not shown) [Example 21, 3-[[4-[(4-chlorobenzoyl)amino]phenyl]sulfonyl]-2-[(phenylsulfanyl)methyl]-propanoic acid]: the inhibition constant (Ki) in data set [1] (setting [3]) was determined as 1.4 nM; in data set [2] (setting [6]) it was 50600 nM.

`O=C(O)C(CSc1ncccn1)CS(=O)(=O)c1ccc(-c2ccc(Cl)cc2)cc1` (stereo not shown) [Example 22, 3-[(4′-chloro[1,1′-biphenyl]-4-yl)sulfonyl]-2-[(2-pyrimidinylsulfanyl)methyl]-propanoic acid] yielded a melting point of 166 to 168 °C. The inhibitory constant (Ki) in data set [1] (setting [3]) was found to be 8 nM. In addition, in data set [2] (setting [6]), the Ki stood at 8030 nM.

As to `Nc1nnc(SCC(CS(=O)(=O)c2ccc(-c3ccc(Cl)cc3)cc2)C(=O)O)s1` (stereo not shown) [Example 23, 3-[(4′-chloro[1,1′-biphenyl]-4-yl)sulfonyl]-2-[[(5-amino-1,3,4-thiadiazol-2-yl)sulfanyl]methyl]propanoic acid], the melting point was 184 to 186 °C. The Ki in data set [1] (setting [3]) was 25 nM.

Consider `Cc1cc(SCC(CS(=O)(=O)c2ccc(-c3ccc(Cl)cc3)cc2)C(=O)O)nc(C)n1` (stereo not shown) [Example 26, 3-[(4′-chloro[1,1′-biphenyl]-4-yl)sulfonyl]-2-[[(2,6-dimethyl-4-pyrimidinyl)sulfanyl]methyl]propanoic acid], for which the melting point fell in the range of 170 to 172 °C. The Ki in data set [1] (setting [3]) is 26.8 nM.

In turn, `Cc1cc(C)nc(SCC(CS(=O)(=O)c2ccc(-c3ccc(Cl)cc3)cc2)C(=O)O)n1` (stereo not shown) [Example 27, 3-[(4′-chloro[1,1′-biphenyl]-4-yl)sulfonyl]-2-[[(4,6-dimethyl-2-pyrimidinyl)sulfanyl]methyl]propanoic acid] gave a melting point of 170 to 172 °C. Further, in data set [1] (setting [3]), the Ki came out at 22.8 nM.

Compound `O=C(O)C(CSc1nccs1)CS(=O)(=O)c1ccc(-c2ccc(Cl)cc2)cc1` (stereo not shown) [Example 28, 3-[(4′-chloro[1,1′-biphenyl]-4-yl)sulfonyl]-2-[(1,3-thiazol-2-ylsulfanyl)methyl]propanoic acid] yielded a melting point of 152 to 154 °C. Moreover, in data set [1] (setting [3]), the Ki was 6.6 nM.

Take `CC(=O)Nc1ccc(OCC(CS(=O)(=O)c2ccc(-c3ccc(Cl)cc3)cc2)C(=O)O)cc1` (stereo not shown) [Example 30, 3-[(4′-chloro[1,1′-biphenyl]-4-yl)sulfonyl]-2-[(4-acetylaminophenoxy)methyl]propanoic acid]: the Ki was 46 nM in data set [1] (setting [3]) and 19600 nM in data set [2] (setting [6]).

Consider `Cn1nnnc1SCC(CS(=O)(=O)c1ccc(-c2ccc(Cl)cc2)cc1)C(=O)O` (stereo not shown) [Example 32, 3-[(4′-chloro[1,1′-biphenyl]-4-yl)sulfonyl]-2-[[(1-methyl-1H-tetrazol-5-yl)sulfanyl]methyl]propanoic acid], for which the melting point was in the range of 98 to 100 °C. Further, in data set [1] (setting [3]), the Ki amounted to 26 nM.

In the case of `O=C(Nc1ccc(S(=O)(=O)CC(COc2ccccc2)C(=O)O)cc1)c1ccc(Cl)cc1` (stereo not shown) [Example 34, 3-[[4-[(4-chlorobenzoyl)amino]phenyl]sulfonyl]-2-(phenoxymethyl)propanoic acid], the values for the Ki in data set [1] (setting [3]) and in data set [2] (setting [6]) were 2.4 nM and 54000 nM, respectively.

With `N#Cc1ccc(C(=O)Nc2ccc(S(=O)(=O)CC(COc3ccccc3)C(=O)O)cc2)cc1` (stereo not shown) [Example 35, 3-[[4-[(4-cyanobenzoyl)amino]phenyl]sulfonyl]-2-(phenoxymethyl)propanoic acid], the Ki in data set [1] (setting [3]) came out at 4.8 nM; in data set [2] (setting [6]), 67500 nM.
